Measurements: patent US20070032471A1, “Active substance combination comprising a 2,5-dihydroxybenzenesulfonic compound and a potassium ion channel modulator” (LABORATORIOS DEL DR. ESTEVE S.A., priority 2003, published 2007)

Experiments:
diabetic rats = assay: Erectile response to cavernosal nerve electrical stimulation in anaesthetized diabetic rats; assay type: in vivo, rat; settings: administered alone, intravenous administration
Method: The in-vivo activity of the active substance combination is tested as described in the reference of Saénz Tejada et al. in International Journal of Impotence Research 2003, 15, 90-93 under “Methods—Erectile responses to cavernosal nerve stimulation in anaesthetized rats”, which is hereby incorporated by reference and forms part of the disclosure. The erectile response to cavemosal nerve electrical stimulation in anaesthetized diabetic rats was determined as described above.

[1] = tested on: human penile resistance arteries; assay: Effect of calcium dobesilate on relaxation induced by Ca2+-activated K+-channel activation (NS1619) in human penile arteries; settings: calcium dobesilate 10 μM for 30 min; norepinephrine-contracted arteries; NS1619 1 nM to 10 μM
Method: (§1) Penile small arteries, […] arteries (lumen diameter 150-400 μm), which are the terminal branches of deep penile arteries, are dissected by carefully removing the adhering trabecular tissue, and arterial ring segments (2 mm long) and are subsequently mounted on two 40 μm wires on microvascular Halpern-Mulvany myographs (J. P. Trading, Aarhus, Denmark) for isometric tension recordings. The vessels are allowed to equilibrate for 30 min in physiological salt solution (PSS) of the following composition (mmol/l): NaCl 119, KCl 4.6, CaCl2 1.5, MgCl2 1.2, NaHCO3 24.9, glucose 11, KH2PO4 1.2, EDTA 0.027 at 37° C. continuously bubbled with 95% 02/5% CO2 mixture to maintain a pH of 7.4. Passive tension and internal circumference of vascular segments when relaxed in situ under a transmural pressure of 100 mmHg (L100), are determined. […] The preparations are then exposed to 125 mM K^+ (KPSS, equimolar substitution of […] in PSS) and the contractile response is measured. […] At this time, responses to NS1619 are again evaluated in NE-contracted arteries. […] Relaxation responses are expressed as percentage of total relaxation (loss in tone) induced by the addition of 0.1 mmol/l papaverine HCl to the chambers at the end of the experiment. All data are expressed as mean±standard error. […]

[2] = tested on: human penile resistance arteries; assay: Effect of calcium dobesilate on relaxation induced by K(ATP)-channel activation (pinacidil) in human penile arteries; settings: calcium dobesilate 10 μM for 30 min; norepinephrine-contracted arteries; pinacidil 1 nM to 1 mM
Method: as §1, with “pinacidil” for “NS1619”

| SMILES | erectile response (diabetic rats; 0.3 mg/kg or 5 mg/kg) | potentiation of relaxant responses induced by K(Ca) channel activation [1] | potentiation of relaxation induced by activation of K(ATP) channels with pinacidil [2] | erectile response (diabetic rats; 10 mg/kg) |
| --- | --- | --- | --- | --- |
| O=c1[nH]c2cc(C(F)(F)F)ccc2n1-c1cc(C(F)(F)F)ccc1O [NS1619, 1-[2-Hydroxy-5-(trifluoromethyl)phenyl]-5-(trifluoromethyl)-1,3-dihydro-2H-benzimidazol-2-one] | do not modify the erectile response | – | – | – |
| O=S(=O)(O)c1cc(O)ccc1O [calcium dobesilate, calcium 2,5-dihydroxybenzenesulfonate] | – | strongly potentiates | significantly potentiates | do not modify the erectile response |
